Measurements: paper PMC11149620 (Journal of medicinal chemistry, 2024)
Like-named read-outs stand apart in the source and are kept apart here. Values belong to the compound of their own block, whether it stands above or below them. Where no end group is shown, it is not given here.

Key:
ATAD2 BRD = conditions: induces dimerization of the ATAD2 BRD to block binding to acetylated histones; cited from earlier work
[1] = target: T1, human ATAD2B BRD-containing protein (residues 953–1085) (Homo sapiens, UniProt Q9ULI0); conditions: read-out: KD for ATAD2B; ITC; cited from earlier work
T1 sequence (Q9ULI0 953-1085): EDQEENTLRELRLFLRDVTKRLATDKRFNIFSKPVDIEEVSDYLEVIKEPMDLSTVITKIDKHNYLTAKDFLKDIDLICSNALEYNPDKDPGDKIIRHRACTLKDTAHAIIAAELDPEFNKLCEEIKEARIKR

[2] = target: T1, human ATAD2B BRD-containing protein (residues 953–1085); assay: ITC of histone peptides with the ATAD2B BRD
[3] = target: T2, Human ATAD2 BRD-containing protein (residues 966–1112) (Homo sapiens, UniProt Q6PL18); conditions: read-out: KD for ATAD2; ITC; cited from earlier work
T2 sequence (Q6PL18 966-1112): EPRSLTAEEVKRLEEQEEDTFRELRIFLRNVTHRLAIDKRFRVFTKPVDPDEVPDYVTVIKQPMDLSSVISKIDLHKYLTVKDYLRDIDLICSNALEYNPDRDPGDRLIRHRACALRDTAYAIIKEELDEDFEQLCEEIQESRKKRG

Compound: COc1cc(Cl)c(C(=O)N[C@@H](CN[C@H]2CC[C@@H](N)CC2)Cc2ccc(C#N)cc2)cc1-c1ccc(CN[C@H](C)c2ccc(C)cc2)o1 [BAY-850]
IC50 (ATAD2 BRD): 0.02 µM

Compound: H4K5ac (1–15): wild-type histone H4K5ac ligand residues 1–15, values from earlier papers
Kd [1]: 5.2 ± 1 µM

Kd [2]: 90 ± 12.8 µM
Compound: SGRGKTGGK(Ac)ARAKAKSR-NH2 [H2A.XK9ac (1–17)]

Compound: SGRGKacQGGKARA [H2AK5ac (1–12)]
Kd [3]: 38.9 ± 5.9 µM
Kd [1]: 42.5 ± 2.9 µM
